The values below come from patent US20080312220A1, “Oxadiazole Derivatives with Crth2 Receptor Activity” (priority 2005, published 2008).

Assay [1] deals with T1, human CRTH2-Rluc (Homo sapiens, UniProt Q9Y5Y4).
T1 construct: expressed in transfected cells; host or cells: HEK293 cell clone stably expressing βarr2-GFP2 and CRTH2-Rluc
T1 sequence (Q9Y5Y4 1-395): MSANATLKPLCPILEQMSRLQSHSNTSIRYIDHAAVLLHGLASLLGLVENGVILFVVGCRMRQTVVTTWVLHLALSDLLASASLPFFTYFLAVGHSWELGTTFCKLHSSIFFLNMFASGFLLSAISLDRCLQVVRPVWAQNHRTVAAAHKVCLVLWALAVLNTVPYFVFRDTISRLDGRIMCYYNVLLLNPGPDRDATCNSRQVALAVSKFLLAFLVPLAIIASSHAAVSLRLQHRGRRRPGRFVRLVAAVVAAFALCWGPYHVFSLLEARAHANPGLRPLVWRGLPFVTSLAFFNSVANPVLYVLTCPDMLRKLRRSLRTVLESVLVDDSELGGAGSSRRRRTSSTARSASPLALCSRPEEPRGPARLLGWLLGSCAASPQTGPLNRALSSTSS
As to the kind of experiment: Functional antagonist BRET assay (CRTH2-Rluc / GFP2-β-arrestin2 in HEK293 cells). In kind it is cell-based. The following applies: HEK293 cells stably expressing CRTH2-Rluc and GFP2-β-arr2, read-out: Antag. IC50. From the text: (§1) Generation/origin of the cDNA Constructs. The coding sequence of the human CRTH2 receptor (genbank accession no NM_004778) was amplified by PCR from a human hippocampus cDNA library and inserted into the pcDNA3.1(+) expression vector (invitrogen) via 5′ HindIII and 3′ EcoRI. To generate a CRTH2-Renilla luciferase (CRTH2-Rluc) fusion protein, the CRTH2 coding sequence without a STOP codon and Rluc were amplified, fused in frame by PCR and subcloned into the pcDNA3.1(+)Zeo expression vector (invitrogen). Human β-arrestin2 (β-arr2) N-terminally tagged with GFP^2 (βarr2-GFP^2) and Renilla luciferase were purchased from BioSignal Packard Inc, (Montreal, Canada). The sequence identity of the construct was verified by restriction endonuclease digests and sequencing in both directions on an ABI Prism (Applied Biosystems, Foster City, Calif.).
(§2) Cell Culture and Transfection. COS-7 cells were grown in Dulbecco's modified Eagle's medium (DMEM) 1885 supplemented with 10% fetal bovine serum, 100 units/ml penicillin, […], and kept at 37° C. in a 10% CO2 atmosphere. HEK293 cells were maintained in Minimum Essential medium (MEM) supplemented with 10% (v/v) heat inactivated fetal calf serum (HIFCS), 2 mM Glutamax™-I, 1% non essential amino acids (NEAA), 1% sodium pyruvate and 10 μg/ml gentamicin. For binding experiments, COS7 cells were transiently transfected with the CRTH2 receptor using a calcium phosphate-DNAcoprecipitation method with the addition of chloroquine (as described by Holst et al., 2001↓). To perform the functional Bioluminescence Resonance Energy Transfer (BRET) assays, a HEK293 cell clone stably expressing Parr2-GFP^2 and CRTH2-Rluc was generated (CRTH2-HEK293 cells).
BRET assay. Functional BRET assays were performed on HEK293 cells stably expressing human CRTH2-Rluc and GFP^2-β-arr2. Prior to their use in the BRET assay cells were detached and re-suspended in D-PBS with 1000 mg/L L-Glucose at a density of 2×10^6 cells/mL. DeepBlueC™ was diluted to 50 μM in D-PBS with 1000 mg/L L-Glucose (light sensitive). 100 μL of cell suspension was transferred to wells in a 96-well microplate (white OptiPlate) and placed in the Mithras LB 940 instrument (BERTHOLD TECHNOLOGIES, Bad Wildbad, Germany). 12 μL/well agonist was then injected by injector 1 and 10 μL/well DeepBlueC™ was injected simultaneously by injector 2. Five seconds after the injections the light output from the well was measured sequentially at 400 nm and 515 nm, and the BRET signal (mBRET ratio) was calculated by the ratio of the fluorescence emitted by GFP^2-β-arr2 (515 nm) over the light emitted by the receptor-Rluc (400 nm). Antagonists were added before placing the microplates into the Mithras LB 940 and allowed to incubate for 15 minutes prior to the addition of agonist and DeepBlueC™. Compounds were dissolved in DMSO and the final DMSO concentration was kept constant at 1% in the assay.
(§3) Curve analysis was performed with the GraphPadPrism software 3.0 (Graphpad Prism Inc., San Diego, USA) and IC50 values were calculated as a measure of the antagonistic potencies.
On the technique in general: In BRET a luciferase serves as donor, and the signal depends on an acceptor being close.

Assay [2] addresses T2, human CRTH2 receptor (Homo sapiens, UniProt Q9Y5Y4).
T2 construct: expressed in transfected cells; host or cells: COS-7 cells, transient transfection (calcium phosphate)
T2 sequence (Q9Y5Y4 1-395): T1 sequence (Q9Y5Y4 1-395)
As to the kind of experiment: Receptor binding assay, competition with [3H]PGD2 on whole transfected cells. The following applies: competition with 0.1 nM [3H]PGD2, whole cells expressing CRTH2.
Text: as §1, §2
Binding assay. 24 h after transfection COS-7 cells were seeded into 96 well plates at a density of 30.000 cells/well. Competition binding experiments on whole cells were then performed about 18-24 h later using 0.1 nM [^3H]PGD2 (NEN, 172 Ci/mmol) in a binding buffer consisting of HBSS (GIBCO) and 10 mM HEPES. Competing ligands were diluted in DMSO which was kept constant at 1% (v/v) of the final incubation volume. Total and nonspecific binding were determined in the absence and presence of 10 μM PGD2. Binding reactions were routinely conducted for 3 h at 4° C. and terminated by 2 washes (100 μl each) with ice cold binding buffer. Radioactivity was determined by liquid scintillation counting in a TOPCOUNTER (Packard) following over night incubation in Microscint 20. Stable HEK293 cells were seeded at a density of 30.000 cells/well 18-24 h prior to the binding assay which was performed essentially as described for COS7 cells above. Determinations were made in duplicates.
as §3

A value given as a limit tells only on which side of the number the result lay.

For orientation: IC50 means the concentration at which inhibition is half-maximal.

For the compound `C[C@H](Oc1ccc(Br)cc1-c1nc(C2(c3ccc(F)cc3)CC2)no1)C(=O)O` [Example D21, (S)-2-(4-Bromo-2-{3-[1-(4-fluoro-phenyl)-cyclopropyl]-[1,2,4]oxadiazol-5-yl}-phenoxy)-propionic acid], the IC50 in assay [1] and in assay [2] was < 500 nM each time.
